# Source: ChEMBL document CHEMBL1641432, “Design and synthesis of 3-pyridylacetamide derivatives as dipeptidyl peptidase IV (DPP-4) inhibitors targeting a bidentate interaction with Arg125” (Bioorg Med Chem, 2011)
# Calls of active or inactive are those of the source. No cut-off for these calls is given here.
# Columns and labels:
# [1] = Solubility of the compound at pH 6.8 after 2 hrs; type: physicochemical; conditions: buffer
# [2] = Bioavailability in rat at 0.1 mg/kg, iv and 1 mg/kg, po by LC/MS/MS analysis; type: ADME, organism-based; conditions: in vivo
# [3] = Metabolic stability in dog hepatic microsomes assessed per mg of protein at 1 uM; type: ADME, Canis lupus familiaris, Liver
# [4] = Mean residence time in dog at 1 mg/kg, po by LC/MS/MS analysis; type: ADME, organism-based, Canis lupus familiaris; design: dose 1 mg/kg, route oral; conditions: in vivo
# [5] = Bioavailability in dog at 0.1 mg/kg, iv and 1 mg/kg, po by LC/MS/MS analysis; type: ADME, organism-based, Canis lupus familiaris; conditions: in vivo
# Dipeptidyl peptidase 2 = Dipeptidyl peptidase 2 (Rattus norvegicus, UniProt Q9EPB1); test: Inhibition of rat kidney DDP2 after 60 mins by spectrophotometry
# Dipeptidyl peptidase 2, sequence (Q9EPB1 whole entry): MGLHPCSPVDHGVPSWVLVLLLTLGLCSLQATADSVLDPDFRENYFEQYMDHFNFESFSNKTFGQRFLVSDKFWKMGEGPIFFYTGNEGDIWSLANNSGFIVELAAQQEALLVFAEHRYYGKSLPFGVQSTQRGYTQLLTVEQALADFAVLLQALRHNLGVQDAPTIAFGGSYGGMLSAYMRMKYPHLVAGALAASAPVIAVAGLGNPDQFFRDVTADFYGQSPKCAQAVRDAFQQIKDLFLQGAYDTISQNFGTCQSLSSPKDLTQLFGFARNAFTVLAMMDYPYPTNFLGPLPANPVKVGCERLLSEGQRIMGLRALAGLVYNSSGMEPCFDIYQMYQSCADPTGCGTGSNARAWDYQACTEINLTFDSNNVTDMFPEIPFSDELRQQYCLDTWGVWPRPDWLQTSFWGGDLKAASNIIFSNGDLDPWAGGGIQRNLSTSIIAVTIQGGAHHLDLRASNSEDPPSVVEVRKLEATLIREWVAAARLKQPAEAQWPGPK
# [6] = Metabolic stability in human hepatic microsomes assessed per mg of protein at 1 uM; type: ADME, Liver
# [7] = Metabolic stability in rat hepatic microsomes assessed per mg of protein at 1 uM; type: ADME, Liver
# Canis familiaris [8] = test: Ex vivo inhibition of DDP4 in dog plasma at 0.5 mg/kg, po after 24 hrs; type: functional; conditions: Canis lupus familiaris
# Dipeptidyl peptidase 8 = Dipeptidyl peptidase 8 (Homo sapiens, UniProt Q6V1X1); test: Inhibition of human DDP8 expressed in HEK293-F cells after 90 mins by spectrophotometry; type: cell-based
# Dipeptidyl peptidase 8, sequence (Q6V1X1 whole entry): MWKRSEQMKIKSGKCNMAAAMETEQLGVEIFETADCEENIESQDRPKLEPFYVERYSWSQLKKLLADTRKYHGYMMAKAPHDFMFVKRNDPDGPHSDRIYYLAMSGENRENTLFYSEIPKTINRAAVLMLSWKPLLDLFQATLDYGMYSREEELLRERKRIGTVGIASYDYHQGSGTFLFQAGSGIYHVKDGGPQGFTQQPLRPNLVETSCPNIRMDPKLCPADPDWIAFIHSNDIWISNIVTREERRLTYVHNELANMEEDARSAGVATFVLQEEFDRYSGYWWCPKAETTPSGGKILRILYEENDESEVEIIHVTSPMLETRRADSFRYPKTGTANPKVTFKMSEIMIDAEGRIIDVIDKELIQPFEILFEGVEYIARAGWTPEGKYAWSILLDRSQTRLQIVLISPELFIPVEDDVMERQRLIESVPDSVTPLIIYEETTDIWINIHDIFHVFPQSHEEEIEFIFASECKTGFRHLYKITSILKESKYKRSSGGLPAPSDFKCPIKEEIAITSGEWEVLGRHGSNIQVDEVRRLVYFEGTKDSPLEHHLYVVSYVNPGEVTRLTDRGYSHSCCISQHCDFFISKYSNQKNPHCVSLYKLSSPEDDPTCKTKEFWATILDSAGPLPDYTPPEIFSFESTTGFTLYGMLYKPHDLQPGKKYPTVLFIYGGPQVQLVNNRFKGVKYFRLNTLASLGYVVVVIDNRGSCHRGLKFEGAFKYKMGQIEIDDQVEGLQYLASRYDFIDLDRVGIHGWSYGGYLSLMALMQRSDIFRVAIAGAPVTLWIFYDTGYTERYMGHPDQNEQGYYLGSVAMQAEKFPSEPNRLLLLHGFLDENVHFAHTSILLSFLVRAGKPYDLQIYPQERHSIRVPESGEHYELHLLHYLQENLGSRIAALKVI
# [9] = Mean residence time in rat at 1 mg/kg, po by LC/MS/MS analysis; type: ADME, organism-based; design: dose 1 mg/kg, route oral; conditions: in vivo
# Canis familiaris [10] = organism: Canis familiaris; conditions: Canis lupus familiaris; Plasma; 0.5 mg/kg
# Description: Ex vivo inhibition of DDP4 in dog plasma at 0.5 mg/kg, po up to 1 hr
# [11] = Solubility of the compound at pH 1.2 after 2 hrs; type: physicochemical; conditions: buffer
smiles,measurement,setting,value
Cc1ccc(-c2c(CC(=O)N3CCC[C@H]3C(N)=O)c(C)nc(CC(C)C)c2CN)cc1.Cl.Cl,solubility at 2 h,[1],71 µg/mL
same,bioavailability,[2],4.9%
same,Stability,[3],2 µL/min
same,MRT,[4],4.35 h
same,bioavailability,[5],21.3%
same,IC50,Dipeptidyl peptidase 2,> 100 µM
same,Stability,[6],4 µL/min
same,Stability,[7],< 1 µL/min
same,inhibition in vivo at 0.5 mg/kg,Canis familiaris [8],90%
same,IC50,Dipeptidyl peptidase 8,> 30 µM
same,MRT,[9],11.2 h
same,inhibition,Canis familiaris [10],Active
same,solubility at 2 h,[11],86 µg/mL
